From patent US9012626B2, “Rebaudioside a composition and method for purifying rebaudioside a” (The Coca-Cola Company, priority 2006, dated 2015)

Test: Rate of dissolution in H2O at 25° C.
Format: physicochemical

Row | Rate of dissolution in H2O at 25° C. (grade in words) | Rate of dissolution in H2O at 25° C. (amount dissolved) (in 60 minutes) | Rate of dissolution in H2O at 25° C. (amount dissolved) (in 5 minutes) | Rate of dissolution compared to the polymorphic forms (Forms 1, 2, or 3) | SMILES
1 | Very low | (<0.2% in 60 | – | – | C=C1C[C@@]23CC[C@H]4[C@@](C)(CCC[C@@]4(C)C(=O)O[C@@H]4O[C@H](CO)[C@@H](O)[C@H](O)[C@H]4O)[C@@H]2CC[C@]1(O[C@@H]1O[C@H](CO)[C@@H](O)[C@H](O[C@@H]2O[C@H](CO)[C@@H](O)[C@H](O)[C@H]2O)[C@H]1O[C@@H]1O[C@H](CO)[C@@H](O)[C@H](O)[C@H]1O)C3 [Form 1, rebaudioside A]
2 | Intermediate | – | (<30% in 5 | – | C=C1C[C@@]23CC[C@H]4[C@@](C)(CCC[C@@]4(C)C(=O)O[C@@H]4O[C@H](CO)[C@@H](O)[C@H](O)[C@H]4O)[C@@H]2CC[C@]1(O[C@@H]1O[C@H](CO)[C@@H](O)[C@H](O[C@@H]2O[C@H](CO)[C@@H](O)[C@H](O)[C@H]2O)[C@H]1O[C@@H]1O[C@H](CO)[C@@H](O)[C@H](O)[C@H]1O)C3 [Form 2, rebaudioside A]
3 | High | – | (>30% in 5 | – | C=C1C[C@@]23CC[C@H]4[C@@](C)(CCC[C@@]4(C)C(=O)O[C@@H]4O[C@H](CO)[C@@H](O)[C@H](O)[C@H]4O)[C@@H]2CC[C@]1(O[C@@H]1O[C@H](CO)[C@@H](O)[C@H](O[C@@H]2O[C@H](CO)[C@@H](O)[C@H](O)[C@H]2O)[C@H]1O[C@@H]1O[C@H](CO)[C@@H](O)[C@H](O)[C@H]1O)C3 [Form 3, rebaudioside A]
4 | High | – | (>35% in 5 | improved rate of dissolution | C=C1C[C@@]23CC[C@H]4[C@@](C)(CCC[C@@]4(C)C(=O)O[C@@H]4O[C@H](CO)[C@@H](O)[C@H](O)[C@H]4O)[C@@H]2CC[C@]1(O[C@@H]1O[C@H](CO)[C@@H](O)[C@H](O[C@@H]2O[C@H](CO)[C@@H](O)[C@H](O)[C@H]2O)[C@H]1O[C@@H]1O[C@H](CO)[C@@H](O)[C@H](O)[C@H]1O)C3 [Form 4, rebaudioside A]
